Source: US20090209605A1, “NEMATICIDAL COMPOSITIONS” (Devgen N.V., priority 2004, published 2009)

How the values were obtained:
Assay type in all cases: in vivo
tomato (cv. Rio Grande) = assay: Pot Assay 2: root development (vigor of roots) of tomato; conditions: RATE 0.05 mg; visual value 0 to 10 (10 equal to control)
Experimental: Phytotoxicity of compounds as described herein when used as a nematicide, was measured as follows. […] At that moment, plant emergence was assessed for the plants treated with any of the compounds as described herein, by counting the number of plants per compound-concentration.
Vigor of roots was also assessed once the plants are well established so as not to loose plants. To assess vigor of the plants or roots, a visual value ranging from 0 to 10 (0 no vigor, 10 equal to control) was scored per compound-concentration.

[1] = test system: stubby root nematodes (Paratrichodorus), stunt nematodes (Tylenchorhynchus spp.), root lesion nematodes (Pratylenchus spp.) and root knot nematodes …; assay: Nematicide field trial on carrots: % deformed carrots
Experimental: Garden carrots were grown in the open field. The soil contained high levels of stubby root nematodes (Paratrichodorus), stunt nematodes (Tylenchorhynchus spp.), root lesion nematodes (Pratylenchus spp.) and root knot nematodes (Meloidogyne spp.).
(§1) An experimental pattern at Complete Randomized Blocks with four replicas was adopted. Besides the experimental products, each test also included an untreated control and a treatment with the standard commercial product VYDATE 10L (10%) applied in accordance to label instructions.
In carrots, nematodes cause deformation such as stunting, dwarfing, twisting, splitting and bearding. For these experiments, the total percentage of deformed carrots were considered, as these are not marketed for human consumption and are of no commercial interest.
Three different tests have been performed (Tables 9, 10 and 11), each containing an untreated and commercial reference control. All treatments were statistically different from untreated control.

[2] = test system: root-knot nematode (Meloidogyne spp); assay: Nematicide field trial on cucumber: root galling and yield; conditions: Product Rate 1500 g ai/ha
Experimental: Open ground grown cucumber (Cucumis sativus cv Carine) were grown on sandy soil with a natural root-knot nematode (Meloidogyne spp) population. Soil samples, collected prior to planting, contained on average 8 J2 juveniles per 100 g soil. A program of 4 applications with intervals of about 14 days was started six days after transplantation.
as §1
[…] The level of nematode attack of the root system at the time of harvesting was assessed by means of the lamberti scoring.

Meloidogyne incognita = assay: Root infestation on agar plate: root knot count on potato microplant roots; conditions: 60 μM in agar, galls counted 5 weeks after inoculation, four replicates
Summary of the method: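 Potato cv. Desirée microplants were grown 2-3 weeks on agar at 20 °C, and compound diffused in from DMSO for 2 days (60 μM in agar). Plates were then inoculated with ~400 axenic M. incognita juveniles. Root galls were counted 5 weeks later in the dark at 20 °C, with four replicates per compound and root toxicity noted.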

SMILES: CCCCc1c(C)nc(NCC)nc1OS(=O)(=O)N(C)C [XLIII]
- ROOT DEV. (tomato (cv. Rio Grande)): 7.8
- % total deformed ([1]; test of Table 9, Product Rate 500 g ai/ha): 35.53%
- % total deformed ([1]; test of Table 9, Product Rate 1500 g ai/ha): 41.34%
- % total deformed ([1]; test of Table 9, Product Rate 3000 g ai/ha): 41.02%
- Average yield of marketable fruits [2]: 8.7 kg/plant/pot
- Average root galling ([2]; 0-5 Lamberti scale): 1.5
- Root knot count, average of the replicate counts (Meloidogyne incognita): 8
